Data set [1] has as its system Common Cutworm (Spodoptera litura). Put plainly: whole plant or invertebrate. The settings on record: for Mortality (%): 5th or 6th day. Here is the method:
They were diluted to a predetermined concentration with water containing a spreader (Shin-Rinoh 0.040) and subjected to the test by themselves or as a mixed liquid.
A leaf segment of cabbage was dipped for about 10 seconds in an insecticidal solution and dried in air. A wet filter paper was laid in a petri dish having a diameter of 9 cm, and the dried leaf segment of cabbage was placed thereon. 10 Second-instar larvae of common cutworm were released therein and after putting a cover, left in a constant temperature chamber at 25° C. with lightening. On the 5th or 6th day after release, dead larvae were counted, and the mortality was calculated by the following equation. Here, the insects that were moribund were counted as dead insects. Mortality (%)={(number of dead insects)/(number of surviving insects+number of dead insects)}×100
Further, the theoretical mortality (%) can be calculated from the colby's formula.

Data set [2] concerns Green Peach Aphid (Myzus persicae). The data set can be described thus: Test on Controlling Effects Against Green Peach Aphid (radish leaf dip). It counts as in vivo. The settings on record: third day after the dipping; for mortality at 0.05 ppm: other pesticide alone 0.05 ppm; for mortality at 100 ppm: other pesticide alone 100 ppm; for mortality at 200 ppm: other pesticide alone 200 ppm. Here is the method: Japanese radish leaf (cut into about 2 cm×3 cm) was put in a test tube in which water was put, and Larvae of green peach aphid were released on the leaf. […] On the third day after the dipping, dead larvae were counted, and the mortality was calculated from the following equation. Aphids that dropped from leaf or were moribund were included in the number of dead. […] Mortality (%)=(number of dead insects/number of treated insects)×100

In data set [3] the test system is Green Rice Leafhopper (Nephotettix cincticeps). The data set can be described thus: Test on Controlling Effects Against Green Rice Leafhopper (rice seedling dip). It counts as in vivo. The source says:
The root was wrapped with absorbent cotton wet with water, and the rice seedling was put in a test tube.

Where [4] appears, read: Spodoptera litura, in Brassica oleracea, foliar.

The record followed here is patent publication US10039284B2, “Pesticidal compositions” (priority 2006, dated 2018).

What is called mortality is the share of the test organisms that died. A low value points to more survivors. In data set [1] (setting [4]), `Cc1c(COC(=O)[C@@H]2[C@H](/C=C(\Cl)C(F)(F)F)C2(C)C)cccc1-c1ccccc1` (racemic) [Bifenthrin, bifenthrin] yielded a mortality at 0.4 ppm of 0% and a mortality at 0.8 ppm of 40%. For the same molecule, the mortality at 0.025 ppm in data set [2] (Myzus persicae, foliar, other pesticide alone 0.025 ppm) turned out to be 0%. This molecule displayed a mortality at 0.05 ppm in data set [2] (Myzus persicae, foliar) of 4%.
For the molecule `CCCCCCCCCCCCC1=C(OC(C)=O)C(=O)c2ccccc2C1=O` [Acequinocyl, acequinocyl], in data set [1] (setting [4]), the mortality at 37.5 ppm was 0%, the mortality at 75 ppm is 0% and the mortality at 150 ppm was determined as 0%.
In data set [1] (setting [4]), `C/C(=N\C#N)N(C)Cc1ccc(Cl)nc1` [Acetamiprid, acetamiprid] displayed a mortality at 12.5 ppm of 0% and a mortality at 25 ppm of 10%.
As for `Cc1ccc(/N=C/N(C)/C=N/c2ccc(C)cc2C)c(C)c1` [Amitraz, amitraz], in data set [1] (setting [4]), the mortality at 62.5 ppm was 0%.
In data set [1] (setting [4]), `C/C=C(\C)C(=O)O[C@H]1C[C@@H](OC(C)=O)[C@@]2(C(=O)OC)CO[C@H]3[C@@H](O)[C@@](C)([C@]45O[C@@]4(C)[C@H]4C[C@@H]5O[C@@H]5OC=C[C@@]54O)[C@H]4[C@]1(CO[C@]4(O)C(=O)OC)[C@@H]32` [Azadirachtin, azadirachtin] registered a mortality at 3.1 ppm of 0%. In data set [2] (Myzus persicae, foliar, other pesticide alone 6.2 ppm), this molecule gave a mortality at 6.2 ppm of 0%. Moreover, the mortality at 12.5 ppm in data set [2] (Myzus persicae, foliar, other pesticide alone 12.5 ppm) amounted to 88%.
For the molecule `CO/C=C(/C(=O)OC)c1ccccc1Oc1cc(Oc2ccccc2C#N)ncn1` [Azoxystrobin, azoxystrobin], the “Mortality (%)” value in data set [3] (other pesticide alone 25 ppm, 5th or 6th day) was 30%.
In data set [2] (Myzus persicae, foliar), `CCC1(C(=O)N[C@H](C)c2ccc(Cl)cc2)C(C)C1(Cl)Cl` (some centres unmarked) [Carpropamid, carpropamid] showed a mortality at 100 ppm of 82% and a mortality at 200 ppm of 93%.
Turning to `CCOCn1c(-c2ccc(Cl)cc2)c(C#N)c(Br)c1C(F)(F)F` [Chlorfenapyr, chlorfenapyr], the mortality at 0.4 ppm in data set [1] (setting [4]) was found to be 20%.
Turning to `O=C(NC(=O)c1c(F)cccc1F)Nc1cc(Cl)c(Oc2ncc(C(F)(F)F)cc2Cl)c(Cl)c1` [Chlorfluazuron, chlorfluazuron], in data set [1] (setting [4]), the mortality at 0.0025 ppm amounted to 0%, the mortality at 0.005 ppm is 0% and the mortality at 0.01 ppm was found to be 0%.
For `CN/C(=N\[N+](=O)[O-])NCc1cnc(Cl)s1` [Clothianidin, clothianidin], in data set [1] (setting [4]), the mortality at 12.5 ppm is 90%.
`Nc1nc(N)nc(NC2CC2)n1` [Cyromazine, cyromazine]: in data set [1] (setting [4]), the mortality at 25 ppm stood at 30% and the mortality at 50 ppm was 60%.
For the molecule `CC1(C)[C@H](C(=O)O[C@H](C#N)c2cccc(Oc3ccccc3)c2)[C@@H]1C=C(Br)Br` [Deltamethrin, deltamethrin], the mortality at 0.4 ppm in data set [1] (setting [4]) turned out to be 30%.
With `Cc1c(Cl)cc(-c2ccc(=O)[nH]n2)cc1Cl` [Diclomezine, diclomezine], in data set [2] (Myzus persicae, foliar), the mortality at 100 ppm was determined as 0% and the mortality at 200 ppm stood at 0%.
In data set [1] (setting [4]), `CN/C(=N/CC1CCOC1)N[N+](=O)[O-]` (centres unmarked) [Dinotefuran, dinotefuran] came in with a mortality at 3.1 ppm of 0%, a mortality at 6.2 ppm of 0% and a mortality at 12.5 ppm of 13%.
For the molecule `N#Cc1nn(-c2c(Cl)cc(C(F)(F)F)cc2Cl)c(N)c1[S+]([O-])C(F)(F)F` (centres unmarked) [Fipronil, fipronil], in data set [1] (setting [4]), the mortality at 0.4 ppm turned out to be 10% and the mortality at 0.8 ppm is 60%.
With `N#CCNC(=O)c1cnccc1C(F)(F)F` [Flonicamid, flonicamid], the “Mortality (%)” value in data set [1] (other pesticide alone 25 ppm) is listed as 0%; in data set [1] (other pesticide alone 50 ppm), 30%; in data set [1] (other pesticide alone 100 ppm) it was 0%; in data set [2] (other pesticide alone 0.8 ppm), 38%; in data set [2] (other pesticide alone 1.5 ppm), 70%.
In data set [1] (setting [4]), `O=C(NC(=O)c1c(F)cccc1F)Nc1ccc(Oc2ccc(C(F)(F)F)cc2Cl)cc1F` [Flufenoxuron, flufenoxuron] came in with a mortality at 0.01 ppm of 0%, a mortality at 0.02 ppm of 20% and a mortality at 0.04 ppm of 20%.
`CC(C)Oc1cccc(NC(=O)c2ccccc2C(F)(F)F)c1` [Flutolanil, flutolanil] showed a mortality at 125 ppm in data set [2] (Myzus persicae, foliar, other pesticide alone 125 ppm) of 0%. The mortality at 250 ppm in data set [2] (Myzus persicae, foliar, other pesticide alone 250 ppm) came out at 6%.
The molecule `CCOP(=O)(SC(C)CC)N1CCSC1=O` (centres unmarked) [Fosthiazate, fosthiazate] yielded a mortality at 25 ppm in data set [1] (setting [4]) of 88%.
In data set [1] (setting [4]), `O=[N+]([O-])NC1=NCCN1Cc1ccc(Cl)nc1` [Imidacloprid, imidacloprid] came in with a mortality at 12.5 ppm of 20% and a mortality at 50 ppm of 75%. In addition, the mortality at 0.05 ppm in data set [2] (Myzus persicae, foliar) was found to be 60%. In addition, in data set [2] (Myzus persicae, foliar, other pesticide alone 0.1 ppm), the mortality at 0.1 ppm is 67%.
Regarding `CC(C)OC(=O)C(C(=O)OC(C)C)=C1SCCS1` [Isoprothiolane, isoprothiolane], the mortality at 200 ppm in data set [3] (Nephotettix cincticeps) was determined as 50%.
Take `C[C@H]1O[C@H](O[C@H]2[C@H](O)[C@@H](O)[C@@H](O)[C@H](O)[C@@H]2O)[C@@H](N)C[C@@H]1NC(=N)C(=O)O` [Kasugamycin, kasugamycin]: the “Mortality (%)” value in data set [2] (other pesticide alone 11.5 ppm) amounted to 0%.
For the molecule `O=C(NC(=O)c1c(F)cccc1F)Nc1cc(Cl)c(OC(F)(F)C(F)C(F)(F)F)cc1Cl` (centres unmarked) [Lufenuron, lufenuron], the mortality at 0.0125 ppm in data set [1] (setting [4]) was found to be 70%.
`Cc1ccccc1C(=O)Nc1cccc(OC(C)C)c1` [Mepronil, mepronil]: the mortality at 187.5 ppm in data set [3] (Nephotettix cincticeps) is 0%.
`O=C(Nc1ccccc1)N(Cc1ccc(Cl)cc1)C1CCCC1` [Pencycuron, pencycuron] came in with a mortality at 125 ppm in data set [1] (setting [4]) of 0%.
As for `CC1(C)C(C=C(Cl)Cl)C1C(=O)OCc1cccc(Oc2ccccc2)c1` (centres unmarked) [Permethrin, permethrin], in data set [1] (setting [4]), the mortality at 3.1 ppm came out at 0%.
Take `CC(C)=CC1C(C(=O)OCc2cccc(Oc3ccccc3)c2)C1(C)C` (centres unmarked) [Phenothrin, phenothrin]: in data set [1] (setting [4]), the mortality at 12.5 ppm turned out to be 20% and the mortality at 25 ppm stood at 80%.
In data set [1] (setting [4]), `C#CCOS(=O)OC1CCCCC1Oc1ccc(C(C)(C)C)cc1` (centres unmarked) [Propargite, propargite] displayed a mortality at 50 ppm of 0%, a mortality at 100 ppm of 0% and a mortality at 200 ppm of 0%.
For `CC(C)(C)c1ccc(CSc2cnn(C(C)(C)C)c(=O)c2Cl)cc1` [Pyridaben, pyridaben], in data set [1] (setting [4]), the mortality at 100 ppm was 0% and the mortality at 200 ppm amounted to 10%.
Regarding `FC(F)(F)c1ccc(OCCCOc2c(Cl)cc(OCC=C(Cl)Cl)cc2Cl)nc1` [Pyridalyl, pyridalyl], in data set [1] (setting [4]), the mortality at 0.4 ppm stood at 0% and the mortality at 1.5 ppm is 80%.
Turning to `CC(=O)N1C(=O)N(NCc2cccnc2)Cc2cc(C(F)(C(F)(F)F)C(F)(F)F)ccc21` [Pyrifluquinazon, pyrifluquinazon], the “Mortality (%)” value in data set [1] (other pesticide alone 25 ppm), in data set [1] (other pesticide alone 50 ppm) and in data set [1] (other pesticide alone 100 ppm) was 0% each time.
Consider `O=C1CCc2cccc3c2N1CC3` [Pyroquilon, pyroquilon], for which, in data set [1] (setting [4]), the mortality at 50 ppm was 0%, the mortality at 100 ppm came to 0% and the mortality at 200 ppm is 0%.
`CCc1ccc(C(=O)NN(C(=O)c2cc(C)cc(C)c2)C(C)(C)C)cc1` [Tebufenozide, tebufenozide] showed a mortality at 1.5 ppm in data set [1] (setting [4]) of 20%.
Molecule `N#C/N=C1\SCCN1Cc1ccc(Cl)nc1` [Thiacloprid, thiacloprid] displayed a mortality at 50 ppm in data set [1] (setting [4]) of 67%.
For `Cc1ccc(NC(=O)c2snnc2C)cc1Cl` [Tiadinil, tiadinil], in data set [1] (setting [4]), the mortality at 50 ppm stood at 0%, the mortality at 100 ppm was 0% and the mortality at 200 ppm was 0%.
In data set [2] (Myzus persicae, foliar), `Cc1cccc2sc3nncn3c12` [Tricyclazole, tricyclazole] had a mortality at 100 ppm of 13% and a mortality at 200 ppm of 0%.
In the case of `OCC1=C[C@H](N[C@H]2C[C@H](CO)[C@@H](O[C@@H]3O[C@H](CO)[C@@H](O)[C@H](O)[C@H]3O)[C@H](O)[C@H]2O)[C@H](O)[C@@H](O)[C@@H]1O` [Validamycin, validamycin], in data set [1] (setting [4]), the mortality at 25 ppm was 0% and the mortality at 50 ppm amounted to 0%.
Turning to `CC1(C)C(C=C(Cl)Cl)C1C(=O)OC(C#N)c1cccc(Oc2ccccc2)c1` (centres unmarked) [Zeta-cypermethrin, zeta-cypermethrin], in data set [1] (setting [4]), the mortality at 0.4 ppm worked out at 0%, the mortality at 0.8 ppm amounted to 0% and the mortality at 1.5 ppm came to 20%.
As for `CC(C)([CH2][Sn]([CH2]C(C)(C)c1ccccc1)([CH2]C(C)(C)c1ccccc1)[O][Sn]([CH2]C(C)(C)c1ccccc1)([CH2]C(C)(C)c1ccccc1)[CH2]C(C)(C)c1ccccc1)c1ccccc1` [fenbutatin oxide], the “Mortality (%)” value in data set [1] (other pesticide alone 200 ppm) was 0%.
For the molecule emamectin-benzoate, the “Mortality (%)” value amounted to 0% in data set [1] (other pesticide alone 0.0025 ppm), 10% in data set [1] (other pesticide alone 0.005 ppm) and 30% in data set [1] (other pesticide alone 0.01 ppm).
Turning to spinosad, the “Mortality (%)” value in data set [1] (other pesticide alone 1.5 ppm) is recorded as 20%; in data set [1] (other pesticide alone 3.1 ppm) it was 60%; in data set [1] (other pesticide alone 6.2 ppm) it was 60%.
